Columns and labels:
[1] = biological target: T1, human ALX receptor (Homo sapiens, UniProt P25090); experiment: Intracellular calcium measurements (FLIPR), agonistic activity in HEK293-hALXR-Gα16 cells; format: cell-based; settings: Fluo-4 calcium FLIPR, normalized to WKYMVm 10 nM
T1 construct: expressed in transfected cells; host or cells: HEK293 (HEK293-hALXR-Gα16)
T1 sequence (P25090 1-351): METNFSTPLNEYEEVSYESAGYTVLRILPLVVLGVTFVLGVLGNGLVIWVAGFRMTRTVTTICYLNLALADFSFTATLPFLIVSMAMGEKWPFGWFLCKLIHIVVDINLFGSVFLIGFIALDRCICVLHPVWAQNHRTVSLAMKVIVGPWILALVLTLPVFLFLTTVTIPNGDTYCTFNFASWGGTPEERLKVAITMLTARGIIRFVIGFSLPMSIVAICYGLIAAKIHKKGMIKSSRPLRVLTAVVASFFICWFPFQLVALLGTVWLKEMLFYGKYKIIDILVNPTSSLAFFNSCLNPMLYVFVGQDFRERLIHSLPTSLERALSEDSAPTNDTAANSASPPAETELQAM
In short: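 HEK293 cells expressing hALXR and Gα16 were loaded with 1 μM Fluo-4 AM and 20 mM HEPES for 60 min at 37°C, then exposed to serially diluted compound. FLIPR fluorescence was read at ex 488/em 540 nm. Baseline-subtracted peak responses were normalized to 10 nM WKYMVm.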

[2] = biological target: T2, human FPRL2 (Homo sapiens, UniProt P25089); experiment: Intracellular calcium measurements (FLIPR), agonistic activity in HEK293-hFPRL2-Gα16 cells; format: cell-based; settings: Fluo-4 calcium FLIPR, normalized to GLY14-Humanin 100 nM
T2 construct: expressed in transfected cells; host or cells: HEK293 (HEK293-hFPRL2-Gα16)
T2 sequence (P25089 1-353): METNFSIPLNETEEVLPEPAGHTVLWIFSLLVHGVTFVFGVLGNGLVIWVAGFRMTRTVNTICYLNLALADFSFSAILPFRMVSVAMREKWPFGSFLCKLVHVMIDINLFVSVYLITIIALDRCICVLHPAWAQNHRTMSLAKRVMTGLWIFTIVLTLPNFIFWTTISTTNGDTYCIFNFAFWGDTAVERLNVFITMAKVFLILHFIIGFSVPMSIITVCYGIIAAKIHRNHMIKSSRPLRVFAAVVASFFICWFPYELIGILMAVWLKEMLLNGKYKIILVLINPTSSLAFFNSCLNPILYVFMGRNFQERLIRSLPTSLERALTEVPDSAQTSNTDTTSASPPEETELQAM
In short: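 Peak values after baseline subtraction are expressed relative to 100 nM Gly14-Humanin; compounds diluted in assay buffer from 10 mM DMSO stocks.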

Compound | EC50 [1] [nM] | EC50 [2] [nM]
CC(C)(C)OC(=O)NCCCNC(=O)[C@H]1[C@H](C(=O)Nc2ccc(Br)cc2)[C@@H]2C=C[C@H]1C21CC1 (racemic) [Example 57, (5R*)—N^5-(4-Bromophenyl)-(6R*)—N^6-(3-(N-tert-butoxycarbonyl-amino)-propyl)-(4S*,7R*)-[4,7-ethenylene-spiro[2.4]heptane]-5,6-dicarboxamide] | 17 | 1660
CC(C)CCNC(=O)[C@H]1[C@H](C(=O)Nc2ccc(Br)cc2)[C@@H]2C=C[C@H]1C21CC1 (racemic) [Example 58, (5R*)—N^5-(4-Bromophenyl)-(6R*)—N^6-(3-methyl-butyl)-(4S*,7R*)-[4,7-ethenylene-spiro[2.4]heptane]-5,6-dicarboxamide] | 20 | 6190
COC(=O)CCNC(=O)[C@H]1[C@H](C(=O)Nc2ccc(Br)cc2)[C@@H]2C=C[C@H]1C21CC1 (racemic) [Example 60, (5R*)—N^5-(4-Bromophenyl)-(6R*)—N^6-(2-(methoxy-carbonyl)-ethyl)-(4S*,7R*)-[4,7-ethenylene-spiro[2.4]heptane]-5,6-dicarboxamide] | 22 | 1480
NS(=O)(=O)c1ccc(CCNC(=O)[C@H]2[C@H](C(=O)Nc3ccc(Br)cc3)[C@@H]3C=C[C@H]2C32CC2)cc1 (racemic) [Example 61, (5R*)—N^5-(4-Bromophenyl)-(6R*)—N^6-(2-(4-aminosulfonyl-phenyl)-ethyl)-(4S*,7R*)-[4,7-ethenylene-spiro[2.4]heptane]-5,6-dicarboxamide] | 23 | 2270
CCn1nc(CCNC(=O)[C@H]2[C@H](C(=O)Nc3ccc(Br)cc3)[C@@H]3C=C[C@H]2C32CC2)cc1C (racemic) [Example 62, (5R*)—N^5-(4-Bromophenyl)-(6R*)—N^6-(2-(1-ethyl-5-methyl-1H-pyrazol-3-yl)-ethyl)-(4S*,7R*)-[4,7-ethenylene-spiro[2.4]heptane]-5,6-dicarboxamide] | 24 | 363
CCN(CC)CCNC(=O)[C@H]1[C@H](C(=O)Nc2ccc(Br)cc2)[C@@H]2C=C[C@H]1C21CC1 (racemic) [Example 66, (5R*)—N^5-(4-Bromophenyl)-(6R*)—N^6-(2-diethyl-amino-ethyl)-(4S*,7R*)-[4,7-ethenylene-spiro[2.4]heptane]-5,6-dicarboxamide] | 34 | 2220
CCCCCNC(=O)[C@H]1[C@H](C(=O)Nc2ccc(Br)cc2)[C@@H]2C=C[C@H]1C21CC1 (racemic) [Example 67, (5R*)—N^5-(4-Bromophenyl)-(6R*)—N^6-(pentyl)-(4S*,7R*)-[4,7-ethenylene-spiro[2.4]heptane]-5,6-dicarboxamide] | 34 | > 25000
CC(C)(C)OC(=O)NCCCCCNC(=O)[C@H]1[C@H](C(=O)Nc2ccc(Br)cc2)[C@@H]2C=C[C@H]1C21CC1 (racemic) [Example 68, (5R*)—N^5-(4-Bromophenyl)-(6R*)—N^6-(5-tert-butoxycarbonyl-amino-pentyl)-(4S*,7R*)-[4,7-ethenylene-spiro[2.4]heptane]-5,6-dicarboxamide] | 27 | 2170
CC(C)CCN1CCC(NC(=O)[C@H]2[C@H](C(=O)Nc3ccc(Br)cc3)[C@@H]3C=C[C@H]2C32CC2)CC1 (racemic) [Example 69, (5R*)—N^5-(4-Bromophenyl)-(6R*)—N^6—(N-(3-methyl-butyl)-piperidin-4-yl)-(4S*,7R*)-[4,7-ethenylene-spiro[2.4]heptane]-5,6-dicarboxamide] | 58 | 708
O=C(NCCc1ccccn1)[C@H]1[C@H](C(=O)Nc2ccc(Br)cc2)[C@@H]2C=C[C@H]1C21CC1 (racemic) [Example 70, (5R*)—N^5-(4-Bromophenyl)-(6R*)—N^6-(2-pyridin-2-yl-ethyl)-(4S*,7R*)-[4,7-ethenylene-spiro[2.4]heptane]-5,6-dicarboxamide] | 61 | 4380
CC(C)(CNC(=O)OC(C)(C)C)CNC(=O)[C@H]1[C@H](C(=O)Nc2ccc(Br)cc2)[C@@H]2C=C[C@H]1C21CC1 (racemic) [Example 71, (5R*)—N^5-(4-Bromophenyl)-(6R*)—N^6-(2,2-dimethyl-3-N-tert-butoxycarbonyl-amino-propyl)-(4S*,7R*)-[4,7-ethenylene-spiro[2.4]heptane]-5,6-dicarboxamide] | 63 | 5550
O=C(Nc1ccnn1-c1ccccc1)[C@H]1[C@H](C(=O)Nc2ccc(Br)cc2)[C@@H]2C=C[C@H]1C21CC1 (racemic) [Example 72, (5R*)—N^5-(4-Bromophenyl)-(6R*)—N^6-(1-phenyl-1H-pyrazol-5-yl)-(4S*,7R*)-[4,7-ethenylene-spiro[2.4]heptane]-5,6-dicarboxamide] | 70 | 1850
O=C(NC1CC1)[C@H]1[C@H](C(=O)Nc2ccc(Br)cc2)[C@@H]2C=C[C@H]1C21CC1 (racemic) [Example 73, (5R*)—N^5-(4-Bromophenyl)-(6R*)—N^6-(cyclopropyl)-(4S*,7R*)-[4,7-ethenylene-spiro[2.4]heptane]-5,6-dicarboxamide] | 63 | 4610
CCCCCCNC(=O)[C@H]1[C@H](C(=O)Nc2ccc(Br)cc2)[C@@H]2C=C[C@H]1C21CC1 (racemic) [Example 75, (5R*)—N^5-(4-Bromophenyl)-(6R*)—N^6-(hexyl)-(4S*,7R*)-[4,7-ethenylene-spiro[2.4]heptane]-5,6-dicarboxamide] | 73 | 7980
CCn1nc(C)cc1CCNC(=O)[C@H]1[C@H](C(=O)Nc2ccc(Br)cc2)[C@@H]2C=C[C@H]1C21CC1 (racemic) [Example 76, (5R*)—N^5-(4-Bromophenyl)-(6R*)—N^6-(2-(1-ethyl-3-methyl-1H-pyrazol-5-yl)-ethyl)-(4S*,7R*)-[4,7-ethenylene-spiro[2.4]heptane]-5,6-dicarboxamide] | 77 | 2430
CCN(CC)CCCNC(=O)[C@H]1[C@H](C(=O)Nc2ccc(Br)cc2)[C@@H]2C=C[C@H]1C21CC1 (racemic) [Example 78, (5R*)—N^5-(4-Bromophenyl)-(6R*)—N^6-(3-diethyl-amino-propyl)-(4S*,7R*)-[4,7-ethenylene-spiro[2.4]heptane]-5,6-dicarboxamide] | 80 | 5480
O=C(NCCN1CCOCC1)[C@H]1[C@H](C(=O)Nc2ccc(Br)cc2)[C@@H]2C=C[C@H]1C21CC1 (racemic) [Example 80, (5R*)—N^5-(4-Bromophenyl)-(6R*)—N^6-(2-morpholino-ethyl)-(4S*,7R*)-[4,7-ethenylene-spiro[2.4]heptane]-5,6-dicarboxamide] | 97 | 7870
O=C(NC1CCN(Cc2ccccc2)CC1)[C@H]1[C@H](C(=O)Nc2ccc(Br)cc2)[C@@H]2C=C[C@H]1C21CC1 (racemic) [Example 83, (5R*)—N^5-(4-Bromophenyl)-(6R*)—N^6—(N-benzyl-piperidin-4-yl)-(4S*,7R*)-[4,7-ethenylene-spiro[2.4]heptane]-5,6-dicarboxamide] | 123 | 678
CCCCCCN(C)C(=O)[C@H]1[C@H](C(=O)Nc2ccc(Br)cc2)[C@@H]2C=C[C@H]1C21CC1 (racemic) [Example 84, (5R*)—N^5-(4-Bromophenyl)-(6R*)—N^6-methyl-N^6-hexyl-(4S*,7R*)-[4,7-ethenylene-spiro[2.4]heptane]-5,6-dicarboxamide] | 133 | 5500
CC(C)(C)CCNC(=O)[C@H]1[C@H](C(=O)Nc2ccc(Br)cc2)[C@@H]2C=C[C@H]1C21CC1 (racemic) [Example 85, (5R*)—N^5-(4-Bromophenyl)-(6R*)—N^6-(3,3-dimethyl-butyl)-(4S*,7R*)-[4,7-ethenylene-spiro[2.4]heptane]-5,6-dicarboxamide] | 146 | 8300
CN1CCC(NC(=O)[C@H]2[C@H](C(=O)Nc3ccc(Br)cc3)[C@@H]3C=C[C@H]2C32CC2)CC1 (racemic) [Example 86, (5R*)—N^5-(4-Bromophenyl)-(6R*)—N^6—(N-methyl-piperidin-4-yl)-(4S*,7R*)-[4,7-ethenylene-spiro[2.4]heptane]-5,6-dicarboxamide] | 147 | 6940

Source: patent publication US8563714B2, “Bridged spiro [2.4] heptane derivatives as ALX receptor and/or FPRL2 agonists” (Actelion Pharmaceuticals Ltd., priority 2009, dated 2013)
